# System: DU145 (prostate cancer) and MDA.MB213 (Triple Negative breast cancer) cells
# Assay: MTT cell growth inhibition assay on human tumor cell lines
# Type: cell-based
# Details: 48 hours exposition; for IC50: read-out: DL50 (lethal dose 50, dose at which there is 50% of cell growth inhibition)
# From the text: (§1) FIG. 1 the evaluation of the inhibitory activity of CAM2 (a), CAM3 (b) and CAM4 (c) on the cell growth of DU145 cells in presence of different concentrations, determined by MTT assay. The cell viability was expressed as percentage of proliferated cells with respect to the cells treated with the different compounds and the same cells used as control and
# as §1, with “2” for “1”, “MDA.MB231” for “DU145”, “control.” for “control and”
# MDA.MB213—Human cell line of breast cancer acquired by ATCC (American Tissue Cell Colture—ATCC® HTB-26™), triple negative for ER receptor
# DU145—Human cell line of prostate cancer acquired by ATCC (American Tissue Cell Colture—ATCC® HTB-81™)
# MTT Cell Proliferation Assay Kit—Purchased by TREVIGEN—Catalog #4890-025-K
# The compound was dissolved in a solution of DMSO concentrated at 100%, therefrom the dilutions programmed according to the scheme shown in figure A and B are obtained and in 96-multiwell plates 2×10^4 cells are deposited (plated).
# After 24 hours the compounds under study in contact with the cells at the pre-established concentrations are used, in order to determine the lethal dose 50, that is the dose thereat there is 50% of cell growth inhibition.
# After 48 hours of exposition to our compound, the growth inhibition effect is determined by means of a colorimetric assay.
# The MTT assay is a measurement of sensitivity of cell proliferation based upon the decrease in the salt of tetrazolium, 3, [4,5-dimethyithiazol-2-]-2,5-diphenyl-bromide-tetrazolium (MTT).
# (§2) Changes in the cell proliferative activity caused by our compounds can be quantified with MTT. MTT is reduced to an insoluble colouring agent, by the mitochondrial enzymes associated to the metabolic activity. MTT reduction is mainly due to the glycolytic activity inside the cell associated to the presence of NADH and NADPH.
# The compound was dissolved in a solution of DMSO concentrated at 100%, therefrom the dilutions programmed according to the scheme shown in figure A and B are obtained, and in 96-multiwell plates 2×10^4 cells are deposited (plated).
# After 24 hours the compounds under study in contact with the cells at pre-established concentrations are used, in order to determine the lethal dose 50, that is the dose thereat there is 50% of cell growth inhibition.
# as §2, with “The MTT assay is a measurement of cell proliferation sensitivity based upon the reduction in the salt of tetrazolium, 3, [4,5-dimethylthiazol-2-]-2,5-diphenyl bromide-tetrazolium (MTT). Changes” for “Changes”
# The compound was dissolved in a solution of DMSO concentrated at 100%, therefrom the dilutions programmed according to the scheme shown in A e B are obtained, in 96-multiwell plates 2×10^4 cells are deposited (plated).
# as §2, with “MTT assay is a measurement of the cell proliferation sensitivity based upon the reduction in the salt of tetrazolium, 3, [4,5-dimethylthiazol-2-]-2,5-diphenyl bromide-tetrazolium (MTT). Changes” for “Changes”
# [1] = 5 μM, cell line not specified (DU145 / MDA.MB213)
# [2] = cell line not specified (DU145 / MDA.MB213)
substance,measurement,setting,value
[Cp-CH2—C6H5—OCH3]2YCl [CAM2],growth inhibition,[1],58%
same,growth inhibition,"20 μM, cell line not specified (DU145 / MDA.MB213)",95%
same,IC50,[2],< 5 µM
[Cp-CH2—C6H5—OCH3]2ScCl [CAM4],growth inhibition,[1],14%
same,growth inhibition,"40 μM (higher concentrations), cell line not specified",88%
same,IC50,[2],20 µM
[Cp-CH2—C6H5—OCH3)]ScCl2 [CAM3],growth inhibition,"10 μM (higher concentrations), cell line not specified",95%
same,"DL50 (lethal dose 50, dose at which there is 50% of cell growth inhibition)",[2],5/10
same,growth inhibition,"lower concentrations (not specified), cell line not specified",40%
